From patent US6261760A, “Regulation of the cell cycle by sterols” (priority 1999, dated 2001)
“Also recorded” adds a separate entry of the source. Where two headings read alike, the source gives them in different places. *1 amine or outer side, *2 acyl side, *3 side chain or, on linkers, in order; H or OH if unused. Where a SMILES comes first, the peptide text is derived from it. Bridges are numbered along the chain shown (N, C = ends). Roman numbers before positions name the chains, in order. [ ]: non-standard residue; d: D form. Actinocin(9to1) = Cc1c2oc3c(C)ccc(C(=O)[*:1])c3nc-2c(C(=O)[*:2])c(N)c1=O; NMeV = CN[C@H](C(=O)O)C(C)C; Nle = CCCC[C@H](N)C(=O)O; Sar = CNCC(=O)O

Assays:
[1] = system: LDL FC uptake by fibroblast monolayers; assay: Transfer of LDL-derived 3H-FC into fibroblast monolayers with metabolic inhibitors (Example 2); assay type: cell-based, human; parameters: Emax: dose or concentration left out as unconfirmed; conditions: for effect on uptake of 3H-FC from LDL: brefeldin A, vinblastine, taxol, nocodazole, NEM 2 mM; for inhibition at higher concentration: 100 mM (monensin: up to 100 mM)
caveolin mRNA = assay: Caveolin mRNA levels (Northern blot)
[2] = system: intracellular FC transport to the cell surface in fibroblast monolayers; assay: Transfer of intracellular 3H-FC to the cell surface (cholesterol oxidase); assay type: cell-based, human; conditions: in words
Experimental: This assay utilized the finding (see Example 1) that only FC in the caveolar fraction of the plasma membrane fraction was modified by cholesterol oxidase in unfixed fibroblast monolayers.
The rate at which intracellular LDL-derived ^3 H-FC became accessible at the cell surface was measured as follows. Cell monolayers were labeled with ^3 H-FC LDL under the conditions shown for each experiment. Unbound and adsorbed LDL were removed as described above. In some experiments metabolic inhibitors of different transport steps were then added for 30 min at 15° C. […] Cholesterol oxidase (Boehringer-Manheim, Indianapolis, Ind., USA) was added in PBS to a final concentration of 1 U ml^-1. Incubation was for 4 h at 0° C. The cells were washed with ice-cold PBS, and extracted with 0.1 N NAOH. Cell total lipid was extracted with chloroform-methanol (1:1 v/v). […] .
Fibroblast monolayers were prelabeled with FC-labeled LDL for 2 min at 31° C. Medium and surface-bound labeled LDL were removed as described above. The cells were incubated with inhibitors of intracellular transport for 30 min at 15° C. Movement of FC label to the cell surface remained negligible (FIG. 11). The cells were brought to 31° C. for 15 min, and then cooled on wet ice. ^3 H-FC transfer to the cell surface (in the presence and absence of inhibitor) was assayed with cholesterol oxidase as described above.

[3] = system: LDL FC uptake by fibroblast monolayers; assay: Effects of metabolic inhibitors on uptake of 3H-cholesterol from LDL (Example 1); conditions: for effect on LDL FC uptake: in words
fibroblasts = conditions: cited from earlier work
[4] = system: LDL FC uptake by fibroblast monolayers; conditions: for effect on LDL FC uptake: in words
fibroblast monolayers = assay: FC efflux from fibroblast monolayers (3H-FC label); assay type: cell-based, human; conditions: in words
Experimental: Fibroblast monolayers were equilibrated with ^3 H-FC-labeled native plasma or with isolated ^3 H-labeled LDL, as specified for each experiment. Following incubation, the dishes were washed with albumin-complete PBS and then (×4) with complete PBS. They were then incubated for 3 min with unlabeled plasma or lipoprotein fractions and the rate of appearance of radioactivity in the medium determined. Samples of medium ([…]) were immediately chilled in ice water and centrifuged (10 min, 2000×g) at 0-2° C. ^3 H-cholesterol radioactivity in the supernatant was either assayed directly, or fractionated by agarose gel electrophoresis. FC efflux was linear as previously reported (Kawano et al., Biochemistry, 32: 5025-5028 (1993)).
For electrophoresis, […] portions of labeled medium were added to strips of 0.75% w/v agarose in 0.025 M barbital buffer (pH 8.6) and separated as previously described (Fielding et al., Biochemistry, 30: 8551-8557 (1991)). 2.5 mm gel fractions were then collected, and radioactivity measured. The location of major lipoprotein classes was determined from strips run simultaneously with whole native plasma equilibrated (60 min, 37° C.) With ^3 HFC.
Rates of FC influx and efflux between medium and fibroblast monolayers preincubated for 24 h with 7-80% native human plasma in DMEM were determined. Cells equilibrated in 80% compared to 7% v/v plasma contained 35-40% more total cholesterol but only 10-15% more FC. In 50% v/v plasma, cholesteryl ester levels were lower than in 80% plasma but FC levels were almost the same. Rates of transfer of FC between the cells and their extracellular medium were determined for each plasma dilution. […] was measured as the rate of transfer of ^3 H-FC radioactivity from labeled native plasma to unlabeled cells. […] was determined as the rate of transfer of radioactivity from uniformly labeled cells to unlabeled native plasma medium.

[5] = system: LDL-receptor deficient cells (GM 2000 line); assay: FC transfer from LDL to LDL receptor-deficient cells (GM 2000); assay type: cell-based
[6] = system: normal human skin fibroblasts; assay: Cell synchronization by aphidicolin (flow cytometry); assay type: cell-based
Experimental: Normal human skin fibroblasts were cultured in 10% fetal calf serum in Dulbecco's modified Eagles medium (DMEM). […] After 3 days, dishes were incubated with aphidicolin (4 μg/ml)(CalBiochem, San Diego, Calif.) to inhibit DNA polymerase, leading to cell arrest immediately before S-phase (Tobey et al. (1988) Expt. Cell Res. […]). After 24 h incubation with aphidicolin, the inhibitor was removed for a further 12 h, then restored for a `double block` at 8 μg/ml for a further 24 h (Sourlingas et al. (1996) Anal. Biochem. 234:104-107). After final removal from inhibitor into 10% serum-DME medium, the cells during incubation over the next 32 h at 37° C. […]
After 3 days, dishes were incubated with aphidicolin (4 μg/ml)(CalBiochem, San Diego, Calif.) to inhibit DNA polymerase, leading to cell arrest immediately prior to DNA synthesis (S-phase) (Tobey et al. (1988) Exptl. Cell Res. 179: 400-416, Sourlingas and Sekeri-Pataryas (1996) Anal. Biochem. 234: 104-107.). […] Cell synchronization was assessed by flow cytometry using the cell permeable stain Hoechst 33342 (Molecular Probes, Eugene, Oreg.)(Haas-Kogan et al. (1995) EMBO J. 14: 461-472.). […] Samples were analysed on a FACStar Plus (Becton Dickinson, San Jose, Calif.). Data was analysed using Lysis II software (Becton Dickinson). […]

COC1=CC(C)=CC(C)C(O)C(C)CC(C)=CC=CC(OC)C(C(C)C(O)C(C)C2(O)CC(O)C(C)C(C(C)C)O2)OC1=O (single isomer, unassigned) [Bafilomycin A1]
Emax ([1]; Homo sapiens, Fibroblast, read-out: maximal effect on LDL-FC uptake): 30%

CCCC[C@@H](C=O)NC(=O)[C@H](CC(C)C)NC(=O)[C@H](CC(C)C)NC(C)=O [ALLN] (Ac-Leu-Leu-[Nle]-aldehyde)
effect on caveolin mRNA levels / caveolin gene expression (caveolin mRNA; 25 μM ALLN, 7% or 80% v/v plasma): superinhibited caveolin mRNA levels regardless of LDL-FC; also recorded: superinhibited the expression of the caveolin gene; also recorded: strongly inhibited caveolin mRNA levels even below the level expressed in cells equilibrated in 7% v/v plasma; also recorded: completely prevented the activation of caveolin mRNA levels observed in 80% v/v plasma

C[C@H]1CCC/C=C/[C@@H]2C[C@H](O)C[C@H]2[C@H](O)/C=C/C(=O)O1 [Brefeldin A]
effect on transport of intracellular 3H-FC to the cell surface [2]: unaffected | effect on uptake of 3H-FC from LDL [1]: without effect

CCN(CC)CCCC(C)Nc1ccnc2cc(Cl)ccc12 (stereo not drawn) [Chloroquine]
effect on LDL FC uptake [3]: no effect

C=C1C(C)C2C(Cc3ccccc3)NC(=O)C23C(OC(C)=O)/C=C/C(C)(O)C(=O)C(C)CC=CC3C1O (stereo not drawn) [Cytochalasin D]
effect on transport of intracellular 3H-FC to the cell surface [2]: no effect | inhibition at higher concentration ([1]; listed as Cytochalasin): No greater inhibition | inhibition at higher concentration ([1]; listed as cytochalasin D): no increase in inhibition

C=C[C@@]1(C)CC(=O)[C@]2(O)[C@@]3(C)[C@@H](O)CCC(C)(C)[C@@H]3[C@H](O)[C@H](OC(C)=O)[C@@]2(C)O1 [Forskolin]
effect on transfer of newly-synthesized cholesterol to plasma membrane (fibroblasts): stimulated | effect on LDL FC uptake [4]: no effect

CC(C)Cn1c(=O)n(C)c(=O)c2[nH]cnc21 [IBMX, isobutyl methylxanthine]
effect on transfer of newly-synthesized cholesterol to plasma membrane (fibroblasts): stimulated | activity ([4]; fibroblast monolayers, 60 min): 111% | effect on LDL FC uptake [4]: no effect

O=[N+]([O-])[O-].[K+] [KNO3]
inhibition of the uptake of free cholesterol from LDLs ([3]; FIG. 8): > 80% | time course of inhibition of LDL FC uptake ([3]; NEM: first 10-15 min, KNO3: 50 mM, data not shown): comparable time course | effect on transport of intracellular 3H-FC to the cell surface [2]: inhibited the return of FC to the cell surface, but less effectively than did nocodazole | initial rate of efflux of FC from prelabeled cells to plasma (fibroblast monolayers): increased several-fold

CC[C@@]1([C@@H]2O[C@@H]([C@H]3O[C@@](O)(CO)[C@H](C)C[C@@H]3C)C[C@@H]2C)CC[C@H]([C@]2(C)CC[C@]3(C[C@H](O)[C@@H](C)[C@@H]([C@@H](C)[C@@H](OC)[C@H](C)C(=O)O)O3)O2)O1 [Monensin]
effect on selective uptake of FC from LDL in GM2000 cells ([5]; in words): Comparable results | inhibition at higher concentration [1]: no increase in inhibition | effect on uptake of 3H-FC from LDL [1]: effective in reducing the selective uptake of FC from LDL

[NH4+].[O]=[V](=[O])[O-] [NH4 -vanadate]
effect on LDL FC uptake [3]: without effect

[N-]=[N+]=[N-].[Na+] [Na-azide]
effect on LDL FC uptake [3]: without effect

COC(=O)Nc1nc2ccc(C(=O)c3cccs3)cc2[nH]1 [Nocodazole]
effect on transport of intracellular 3H-FC to the cell surface [2]: reduced | effect on uptake of 3H-FC from LDL [1]: without effect

CC[C@]1(O)C[C@@H]2CN(CCc3c([nH]c4ccccc34)[C@@](C(=O)OC)(c3cc4c(cc3OC)N(C)[C@H]3[C@@](O)(C(=O)OC)[C@H](OC(C)=O)[C@]5(CC)C=CCN6CC[C@]43[C@@H]65)C2)C1 [Vinblastine]
effect on transport of intracellular 3H-FC to the cell surface [2]: unaffected | effect on uptake of 3H-FC from LDL [1]: without effect

Cc1c2oc3c(C)ccc(C(=O)N[C@@H]4C(=O)N[C@H](C(C)C)C(=O)N5CCC[C@H]5C(=O)N(C)CC(=O)N(C)[C@@H](C(C)C)C(=O)O[C@@H]4C)c3nc-2c(C(=O)N[C@@H]2C(=O)N[C@H](C(C)C)C(=O)N3CCC[C@H]3C(=O)N(C)CC(=O)N(C)[C@@H](C(C)C)C(=O)O[C@@H]2C)c(N)c1=O [actinomycin, actinomycin D] (I: T[dV]P[Sar][NMeV] / II: T[dV]P[Sar][NMeV]; ester I:1-I:C, II:1-II:C; linker I:N-II:N via Actinocin(9to1))
t1/2 of decrease in caveolin mRNA levels (caveolin mRNA; actinomycin 2.5 μg ml^-1, activated and baseline cells, n=4): 8.0 ± 1 h | caveolin mRNA level relative to total RNA (caveolin mRNA; baseline cells, 8 h with actinomycin, 37° C.): 0.52

C[C@@]1(CO)[C@H](O)CC[C@@]2(C)[C@H]1CC[C@H]1C[C@@H]3C[C@@]12CC[C@]3(O)CO [aphidicolin]
cells synchronized to enter S-phase ([6]; Example 4, following removal of inhibitor): ~ 85% | cells in synchrony at the beginning of S phase ([6]; Example 5, 4 then 8 μg/ml aphidicolin): 83.9±3.1%

CC(=O)O[C@H]1C(=O)[C@@]2(C)[C@H]([C@H](OC(=O)c3ccccc3)[C@]3(O)C[C@H](OC(=O)[C@H](O)[C@@H](NC(=O)c4ccccc4)c4ccccc4)C(C)=C1C3(C)C)[C@]1(OC(C)=O)CO[C@@H]1C[C@@H]2O [taxol]
effect on uptake of 3H-FC from LDL [1]: without effect

heparin
inhibition of LDL FC influx ([5]; GM 2000 cells, 0.1 mg/ml heparin, LDL 150 Fg FC ml^-1, 10 min): Approximately 80% | inhibition of LDL FC influx ([3]; normal fibroblasts, 0.1 mg/ml heparin, LDL 150 Fg FC ml^-1, 10 min): Approximately 80%
